# From PMC6646405, “A quantitative, high-throughput method identifies protein–glycan interactions via mass spectrometry” (Communications Biology, 2019)
# How the values were obtained:
# [1] = target: human carbonic anhydrase type 1 (Homo sapiens, UniProt P00915); assay: Direct ESI-MS affinity of OSmod for the universal proxy protein (UniPproxy); settings: read-out: Kd of OSmod for UniPproxy; direct ESI-MS, 200 mM aqueous ammonium acetate, pH 7, 25 °C
# [2] = target: T1, human neuraminidase 2 (NEU2) (Homo sapiens, UniProt Q9Y3R4); assay: Time-resolved CUPRA enzyme kinetics, NEU2; type: biochemical; settings: for fraction of OSmod substrate remaining (Fig2d time course): 200 mM aqueous ammonium acetate, pH 7, 25 °C
# T1 construct: made in house
# T1 sequence (Q9Y3R4 whole entry): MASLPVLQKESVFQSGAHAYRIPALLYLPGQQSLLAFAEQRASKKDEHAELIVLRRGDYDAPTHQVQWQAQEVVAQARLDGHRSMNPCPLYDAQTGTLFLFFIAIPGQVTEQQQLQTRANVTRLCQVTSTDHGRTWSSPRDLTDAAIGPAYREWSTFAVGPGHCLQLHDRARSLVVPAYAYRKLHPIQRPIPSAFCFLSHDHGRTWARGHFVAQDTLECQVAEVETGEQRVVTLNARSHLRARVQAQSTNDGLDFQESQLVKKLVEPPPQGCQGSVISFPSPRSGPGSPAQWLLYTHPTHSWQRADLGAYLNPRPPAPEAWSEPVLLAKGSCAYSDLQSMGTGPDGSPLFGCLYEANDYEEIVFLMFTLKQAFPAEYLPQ
# Procedure: To apply CUPRA in this capacity, two or more substrates of interest are introduced, as their corresponding OS^mod, to a solution containing the desired CAZyme. Changes in substrate concentrations, as well as those of the corresponding enzyme products, are determined from the relative abundances of OS^mod-bound ^UniPproxy measured by time-resolved ESI-MS. Because of the manner in which the substrate and product concentrations are measured, the assay is insensitive to differences in their ESI-MS response factors and, consequently, independent of the nature of the chemical modification catalyzed by the enzyme. As a result, time-resolved CUPRA eliminates the need for calibration curves or internal standards, which are generally required with ESI-MS-based enzyme kinetics assays.
# Two glycosyl hydrolases, human neuraminidase 2 (NEU2) and 3 (NEU3), which preferentially cleave α2-3-linked Neu5Ac residues, were used to illustrate the ease with which time-resolved CUPRA can establish substrate specificities. We incubated libraries of the Neu5Ac-containing OS^mod with NEU2 (Fig. 2d) or NEU3 (Fig. 2e) and monitored their conversion to the corresponding desialylated OS^mod products at pH 7 and 25 °C. […] All OS^mod containing terminal α2-3-linked Neu5Ac were substrates of NEU3, with initial rates that are 10–50% that of HMO03. […] Substrates containing branching after the α2-3-linkage were poor substrates for both enzymes. […] We note, however, that previous reports have examined NEU2 and NEU3 activity under more acidic solution conditions. Furthermore, the nature of the substrate aglycone may influence the activity of human neuraminidases.
# The time-resolved CUPRA measurements were performed by manually mixing aliquots of stock solutions of NEU2 or NEU3 (final concentration 2 µM), ^UniPproxy (5 µM), substrates (Si, 5 µM each) and CUPRA linker (5 µM), all in 200 mM aqueous ammonium acetate at pH 7 and 25 °C. ESI mass spectra were collected continuously at the rate of 30 scans min^−1 starting at 3 min after mixing. The adduct distributions measured for the ^UniPproxy – CUPRA linker complex ions were used to apply SWARM. The time-dependent fractional abundance of a given substrate (FS,i) (Eq. 12), which was used to represent reaction progress, was calculated from the total Ab of ^UniPproxy bound to Si and corresponding product (Pi), corrected for Si consumed prior to data acquisition.12 FS,i=Ab^UniPproxySi/Ab^UniPproxySi+Ab^UniPproxyPi
# Chain of human carbonic anhydrase type 1 (P00915 whole entry): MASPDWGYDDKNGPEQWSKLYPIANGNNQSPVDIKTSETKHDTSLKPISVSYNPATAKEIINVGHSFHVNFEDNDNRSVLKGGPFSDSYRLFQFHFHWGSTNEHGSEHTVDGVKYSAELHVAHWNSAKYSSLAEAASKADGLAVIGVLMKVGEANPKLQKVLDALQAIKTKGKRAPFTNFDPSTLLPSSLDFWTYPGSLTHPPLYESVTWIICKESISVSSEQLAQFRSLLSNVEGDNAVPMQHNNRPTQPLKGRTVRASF
compound,measurement,setting,value
"CC(=O)N[C@H]1[C@H](O[C@@H]2[C@H](O[C@]3(C(=O)O)C[C@H](O)[C@@H](NC(C)=O)[C@H]([C@H](O)[C@@H](CO)O[C@]4(C(=O)O)C[C@H](O)[C@@H](NC(C)=O)[C@H]([C@H](O)[C@H](O)CO)O4)O3)[C@@H](O)[C@H](O[C@H]3[C@H](O)[C@@H](O)[C@H](N(CCOCCOCCNC(=O)[C@H](Cc4ccccc4)NC(=O)[C@H](Cc4ccccc4)NC(=O)CCCC(=O)NCCc4ccc(S(N)(=O)=O)cc4)C(C)=O)O[C@@H]3CO)O[C@@H]2CO)O[C@H](CO)[C@H](O)[C@@H]1O [GA10, GalNAcβ1-4(Neu5Acα2-8 Neu5Acα2-3)Galβ1-4Glc-CL]",Kd,[1],14.1 ± 1.9 µM
same,relative abundance of OSmod substrate (Fig2d time course),[2]; time 0 min,0.903
same,relative abundance of OSmod substrate (Fig2d time course),[2]; time 1 min,0.9038
same,relative abundance of OSmod substrate (Fig2d time course),[2]; time 2 min,0.8996
same,relative abundance of OSmod substrate (Fig2d time course),[2]; time 3 min,0.8888
same,relative abundance of OSmod substrate (Fig2d time course),[2]; time 4 min,0.9044
same,relative abundance of OSmod substrate (Fig2d time course),[2]; time 7 min,0.9102
same,relative abundance of OSmod substrate (Fig2d time course),[2]; time 8 min,0.9068
same,relative abundance of OSmod substrate (Fig2d time course),[2]; time 9 min,0.9088
same,relative abundance of OSmod substrate (Fig2d time course),[2]; time 10 min,0.9065
same,relative abundance of OSmod substrate (Fig2d time course),[2]; time 11 min,0.9097
same,relative abundance of OSmod substrate (Fig2d time course),[2]; time 12 min,0.9035
same,relative abundance of OSmod substrate (Fig2d time course),[2]; time 13 min,0.9029
same,relative abundance of OSmod substrate (Fig2d time course),[2]; time 14 min,0.9064
same,relative abundance of OSmod substrate (Fig2d time course),[2]; time 15 min,0.8954
same,relative abundance of OSmod substrate (Fig2d time course),[2]; time 16 min,0.9063
same,relative abundance of OSmod substrate (Fig2d time course),[2]; time 17 min,0.9123
same,relative abundance of OSmod substrate (Fig2d time course),[2]; time 18 min,0.9135
same,relative abundance of OSmod substrate (Fig2d time course),[2]; time 19 min,0.9061
same,relative abundance of OSmod substrate (Fig2d time course),[2]; time 20 min,0.9106
same,relative abundance of OSmod substrate (Fig2d time course),[2]; time 21 min,0.9179
same,relative abundance of OSmod substrate (Fig2d time course),[2]; time 22 min,0.9134
same,relative abundance of OSmod substrate (Fig2d time course),[2]; time 23 min,0.9095
same,relative abundance of OSmod substrate (Fig2d time course),[2]; time 24 min,0.9035
same,relative abundance of OSmod substrate (Fig2d time course),[2]; time 25 min,0.9132
same,relative abundance of OSmod substrate (Fig2d time course),[2]; time 26 min,0.907
same,relative abundance of OSmod substrate (Fig2d time course),[2]; time 27 min,0.9132
same,relative abundance of OSmod substrate (Fig2d time course),[2]; time 28 min,0.9116
same,relative abundance of OSmod substrate (Fig2d time course),[2]; time 29 min,0.9094
same,relative abundance of OSmod substrate (Fig2d time course),[2]; time 30 min,0.9084
same,relative abundance of OSmod substrate (Fig2d time course),[2]; time 31 min,0.9073
same,relative abundance of OSmod substrate (Fig2d time course),[2]; time 32 min,0.915
same,relative abundance of OSmod substrate (Fig2d time course),[2]; time 33 min,0.9164
same,relative abundance of OSmod substrate (Fig2d time course),[2]; time 34 min,0.9136
same,relative abundance of OSmod substrate (Fig2d time course),[2]; time 35 min,0.9113
same,relative abundance of OSmod substrate (Fig2d time course),[2]; time 36 min,0.9057
same,relative abundance of OSmod substrate (Fig2d time course),[2]; time 37 min,0.9031
same,relative abundance of OSmod substrate (Fig2d time course),[2]; time 38 min,0.9043
same,relative abundance of OSmod substrate (Fig2d time course),[2]; time 39 min,0.895
same,relative abundance of OSmod substrate (Fig2d time course),[2]; time 40 min,0.8976
same,relative abundance of OSmod substrate (Fig2d time course),[2]; time 41 min,0.8827
same,relative abundance of OSmod substrate (Fig2d time course),[2]; time 42 min,0.9129
same,relative abundance of OSmod substrate (Fig2d time course),[2]; time 43 min,0.905
same,relative abundance of OSmod substrate (Fig2d time course),[2]; time 44 min,0.9072
same,relative abundance of OSmod substrate (Fig2d time course),[2]; time 45 min,0.9125
same,relative abundance of OSmod substrate (Fig2d time course),[2]; time 46 min,0.9034
same,relative abundance of OSmod substrate (Fig2d time course),[2]; time 47 min,0.9131
same,relative abundance of OSmod substrate (Fig2d time course),[2]; time 48 min,0.9147
same,relative abundance of OSmod substrate (Fig2d time course),[2]; time 49 min,0.9115
same,relative abundance of OSmod substrate (Fig2d time course),[2]; time 50 min,0.9161
same,relative abundance of OSmod substrate (Fig2d time course),[2]; time 51 min,0.9162
same,relative abundance of OSmod substrate (Fig2d time course),[2]; time 52 min,0.9166
same,relative abundance of OSmod substrate (Fig2d time course),[2]; time 53 min,0.9066
same,relative abundance of OSmod substrate (Fig2d time course),[2]; time 54 min,0.9094
same,relative abundance of OSmod substrate (Fig2d time course),[2]; time 55 min,0.9043
same,relative abundance of OSmod substrate (Fig2d time course),[2]; time 56 min,0.9097
same,relative abundance of OSmod substrate (Fig2d time course),[2]; time 57 min,0.9071
same,relative abundance of OSmod substrate (Fig2d time course),[2]; time 58 min,0.9137
same,relative abundance of OSmod substrate (Fig2d time course),[2]; time 59 min,0.9089
same,relative abundance of OSmod substrate (Fig2d time course),[2]; time 60 min,0.9084
same,relative abundance of OSmod substrate (Fig2d time course),[2]; time 61 min,0.9152
same,relative abundance of OSmod substrate (Fig2d time course),[2]; time 62 min,0.9099
same,relative abundance of OSmod substrate (Fig2d time course),[2]; time 63 min,0.9041
same,relative abundance of OSmod substrate (Fig2d time course),[2]; time 64 min,0.9
same,relative abundance of OSmod substrate (Fig2d time course),[2]; time 65 min,0.9101
same,relative abundance of OSmod substrate (Fig2d time course),[2]; time 66 min,0.9104
same,relative abundance of OSmod substrate (Fig2d time course),[2]; time 67 min,0.9077
same,relative abundance of OSmod substrate (Fig2d time course),[2]; time 68 min,0.9072
same,relative abundance of OSmod substrate (Fig2d time course),[2]; time 69 min,0.9129
same,relative abundance of OSmod substrate (Fig2d time course),[2]; time 70 min,0.9057
same,relative abundance of OSmod substrate (Fig2d time course),[2]; time 71 min,0.9057
same,relative abundance of OSmod substrate (Fig2d time course),[2]; time 72 min,0.9132
same,relative abundance of OSmod substrate (Fig2d time course),[2]; time 73 min,0.9108
same,relative abundance of OSmod substrate (Fig2d time course),[2]; time 74 min,0.9071
same,relative abundance of OSmod substrate (Fig2d time course),[2]; time 75 min,0.9161
same,relative abundance of OSmod substrate (Fig2d time course),[2]; time 76 min,0.9095
same,relative abundance of OSmod substrate (Fig2d time course),[2]; time 77 min,0.9151
same,relative abundance of OSmod substrate (Fig2d time course),[2]; time 78 min,0.9122
same,relative abundance of OSmod substrate (Fig2d time course),[2]; time 79 min,0.9076
same,relative abundance of OSmod substrate (Fig2d time course),[2]; time 80 min,0.9134
same,relative abundance of OSmod substrate (Fig2d time course),[2]; time 81 min,0.9135
same,relative abundance of OSmod substrate (Fig2d time course),[2]; time 82 min,0.9162
same,relative abundance of OSmod substrate (Fig2d time course),[2]; time 83 min,0.9125
same,relative abundance of OSmod substrate (Fig2d time course),[2]; time 84 min,0.9098
same,relative abundance of OSmod substrate (Fig2d time course),[2]; time 97 min,0.9111
same,relative abundance of OSmod substrate (Fig2d time course),[2]; time 98 min,0.9062
same,relative abundance of OSmod substrate (Fig2d time course),[2]; time 99 min,0.9109
same,relative abundance of OSmod substrate (Fig2d time course),[2]; time 100 min,0.915
same,relative abundance of OSmod substrate (Fig2d time course),[2]; time 101 min,0.9087
same,relative abundance of OSmod substrate (Fig2d time course),[2]; time 102 min,0.916
same,relative abundance of OSmod substrate (Fig2d time course),[2]; time 103 min,0.9129
same,relative abundance of OSmod substrate (Fig2d time course),[2]; time 104 min,0.9139
same,relative abundance of OSmod substrate (Fig2d time course),[2]; time 105 min,0.9109
same,relative abundance of OSmod substrate (Fig2d time course),[2]; time 106 min,0.908
same,relative abundance of OSmod substrate (Fig2d time course),[2]; time 107 min,0.9138
same,relative abundance of OSmod substrate (Fig2d time course),[2]; time 108 min,0.911
same,relative abundance of OSmod substrate (Fig2d time course),[2]; time 109 min,0.9085
same,relative abundance of OSmod substrate (Fig2d time course),[2]; time 110 min,0.8819
same,relative abundance of OSmod substrate (Fig2d time course),[2]; time 111 min,0.9092
same,relative abundance of OSmod substrate (Fig2d time course),[2]; time 112 min,0.9111
same,relative abundance of OSmod substrate (Fig2d time course),[2]; time 113 min,0.9127
same,fraction of OSmod substrate remaining (Fig2d time course),"[2]; time 114 min, time-resolved CUPRA",0.9126
same,fraction of OSmod substrate remaining (Fig2d time course),"[2]; time 115 min, time-resolved CUPRA",0.9042
same,fraction of OSmod substrate remaining (Fig2d time course),"[2]; time 116 min, time-resolved CUPRA",0.909
same,fraction of OSmod substrate remaining (Fig2d time course),"[2]; time 117 min, time-resolved CUPRA",0.9097
same,fraction of OSmod substrate remaining (Fig2d time course),"[2]; time 118 min, time-resolved CUPRA",0.9085
same,fraction of OSmod substrate remaining (Fig2d time course),"[2]; time 119 min, time-resolved CUPRA",0.9043
same,fraction of OSmod substrate remaining (Fig2d time course),"[2]; time 120 min, time-resolved CUPRA",0.904
same,fraction of OSmod substrate remaining (Fig2d time course),"[2]; time 121 min, time-resolved CUPRA",0.904
same,fraction of OSmod substrate remaining (Fig2d time course),"[2]; time 122 min, time-resolved CUPRA",0.904
same,fraction of OSmod substrate remaining (Fig2d time course),"[2]; time 123 min, time-resolved CUPRA",0.904
same,fraction of OSmod substrate remaining (Fig2d time course),"[2]; time 124 min, time-resolved CUPRA",0.904
same,Relative activity NEU2,"[2]; time-resolved CUPRA, 200 mM aqueous ammonium acetate pH 7, 25 °C, relative to HMO03",0.000
